The text below walks through data of US20080107619A1, “Carbohydrate based cellulase inhibitors as feeding stimulants in termites” (University of Florida Research Foundation, Inc., priority 2006, published 2008).

pIC50: −log10 of the molar value.

Assay [1] deals with endoglucanase. Kind of assay: Post-feeding inhibition of endoglucanase activity in whole-body homogenates. The assay is classed as in vivo, R. flavipes. Conditions: after 24 days feeding, various concentrations; FIGS. 11A-11C. The method, then:
Whole body homogenates were used for optimization and post-feeding inhibition studies. Here, 10-15 termite workers were homogenized in 1 to 1.5 ml ice-cold homogenization buffer with a Teflon-glass (Potter-Elvehjem) homogenizer powered by a motorized electric stirrer (Fisher Scientific). After homogenization, both gut region and whole-body preparations were centrifuged at 15,000× g and 4° C. for 15 min. The resulting supernatants from the different gut regions were used directly for subsequent enzyme assays. Supernatants from whole-body homogenates were passed through glass wool to remove excess lipids before proceeding with cellulase activity assays.
Cellulase activity assays were adapted from Han et al. in “Characterization of a bifunctional cellulase and its structural gene,” J. Biol. Chem. 270 (1995) 26012-26019, with optimization for a 96-well microplate format. The model substrates used to test for endoglucanase, exoglucanase and β-glucosidase activities were CMC (FIG. 1A), pNPC (FIG. 1B) and pNPG (FIG. 1C), respectively. The substrate concentration used for CMC was 0.5% (w/v), while pNPG and pNPC were used at 4 mM. All substrates were diluted in homogenization buffer. […] Color was allowed to develop on ice for 15 min before measuring absorbance at 540 nm relative to a glucose standard curve. […]

The target in assay [2] is endoglucanase. Briefly: In vitro endoglucanase inhibition, CMC assay (I50 determination). As to conditions: foregut/salivary gland/midgut (endogenous) and hindgut (symbiotic) fractions, FIG. 4. The assay is classed as biochemical, R. flavipes. The method, then: (§1) Gut dissections were carried out for cellulase distribution and inhibition studies. For dissections, termites were immobilized on ice, decapitated, and the entire digestive tract removed through a small incision made in the abdominal exoskeleton. For cellulase distribution studies, dissected guts were divided into three regions: (i) salivary gland+foregut, (ii) midgut and (iii) hindgut. For inhibition studies, guts were divided into two major components that included: (i) foregut, salivary gland and midgut, and (ii) hindgut. […]
(§2) Cellulase activity assays were adapted from Han et al. in “Characterization of a bifunctional cellulase and its structural gene,” J. Biol. Chem. 270 (1995) 26012-26019, with optimization for a 96-well microplate format. […] Color was allowed to develop on ice for 15 min before measuring absorbance at 540 nm relative to a glucose standard curve.
The efficacy of the three carbohydrate-based cellulase inhibitors CBI (FIG. 1D), FMG (FIG. 1E) and FMCB (FIG. 1F) was tested against two different gut enzyme sources that included (i) endogenous termite cellulases from salivary gland, foregut and midgut, and (ii) symbiotic cellulases from the hindgut. […] Percent inhibition was calculated relative to methanol controls. […]

The next assay addresses β-glucosidase. Kind of assay: In vitro β-glucosidase inhibition, pNPG assay (I50 determination). The format is biochemical, R. flavipes. Conditions: foregut/salivary gland/midgut (endogenous) and hindgut (symbiotic) fractions, FIG. 4. The method, then: as §1, §2
The hydrolysis product of both the pNPC and pNPG substrates is p-nitrophenol, which is yellow in color and permits for direct quantification of activity in a kinetic assay. pNPC and pNPG assays were initially incubated at 32° C. for 20 min before measuring the release of the product, p-nitrophenol, at 420 nm. The absorbance of reactions was read every 2 min for 1 hr and activity was determined based on rate of absorbance change. […]

For another assay, the target named is T1, Cel5A enzyme (Salipaludibacillus agaradhaerens, UniProt O85465).
T1 sequence (O85465 27-400): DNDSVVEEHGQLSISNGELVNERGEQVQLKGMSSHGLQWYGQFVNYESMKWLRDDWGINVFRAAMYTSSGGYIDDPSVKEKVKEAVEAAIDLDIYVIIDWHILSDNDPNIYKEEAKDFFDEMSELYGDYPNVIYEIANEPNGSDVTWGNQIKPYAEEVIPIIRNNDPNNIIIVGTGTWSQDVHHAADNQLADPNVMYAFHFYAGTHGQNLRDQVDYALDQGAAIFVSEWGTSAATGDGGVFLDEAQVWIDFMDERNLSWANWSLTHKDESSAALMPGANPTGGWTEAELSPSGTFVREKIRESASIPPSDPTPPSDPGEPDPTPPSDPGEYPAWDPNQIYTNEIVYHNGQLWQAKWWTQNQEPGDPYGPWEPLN
Conditions: Varrott et al.; read-out: I50 value; cited from earlier work.

For `OC[C@@H]1[C@@H](O[C@@H]2O[C@H](CO)[C@@H](O)[C@H](O)[C@H]2O)[C@H](O)[C@@H](O)c2nccn21` [CBI, cellobioimidazole], in the assay on endoglucanase [1], the “endoglucanase activity after feeding, reduction relative to controls” value is “significant”. For the same compound, at endoglucanase [2], the “I50 against endoglucanase activity” value was “virtually no activity”. Also, on β-glucosidase, the “I50 against β-glucosidase activity” value is on record as “I50s in the nM-μM range”. Further, the pIC50 on Cel5A enzyme is 4.06.
Take fluoromethyl glucose [FMG]: the “I50 against endoglucanase activity” value at endoglucanase [2] is listed as “virtually no inhibitory properties”. On β-glucosidase, the “I50 against β-glucosidase activity” value is listed as “virtually no inhibitory properties”.
